Experimental data reported in US20210330672A1, “USE OF BCL6 INHIBITORS FOR TREATING AUTOIMMUNE DISEASES” (TEQLA THERAPEUTICS INC., priority 2018, published 2021).

Key:
KLH-specific IgG = assay: KLH-specific serum IgG (ELISA) after in vivo treatment of KLH-immunized mice; parameters: species or system C57BL/6 mice; settings: for Serum IgG Level, Day 14, Group Mean: KLH-immunized mice, KLH + Vehicle group 223879
Procedure: (§1) Experimental animals: Female C57BL/6 mice were purchased from Envigo (Livermore, Calif.) to provide 8- to 10-week-old animals at the time of immunization. IgG measurements were performed using Innovative Research KLH IgG ELISA kit. Germinal center staining was performed on Dako autostainer using procedures well known in the art.
(§2) On Day 0, animals of Groups 2-6 (n=10 each) were immunized by intraperitoneal (IP) injection with 0.2 mL (0.5 mg) per mouse of KLH, a dose determined to be optimal for IP administration without adjuvant. Mice from Group 1 (n=5) were sham-immunized by IP injection of 0.2 mL PBS per mouse.
(§3) Starting on Day 0 (immediately post-immunization) and continuing through Day 13 (i.e., 14 days total), animals in Group 1, 2, and 4-6 were injected IP once daily (QD) with vehicle, 30 mg/kg Compound 1, 10 mg/kg Compound 1, or 100 mg/kg Compound 2; animals in Group 3 were injected IP once weekly (QW) with 50 mg/kg CP. All doses were administered by IP injection at 5 mL/kg at approximately the same time (±1 h) each day.
(§4) On Day 14 (at approximately 24 hours after the final dose administration), all animals were subjected to terminal cardiocentesis and euthanized. Following clotting and processing, the resulting serum samples were flash-frozen and stored at −80° C. pending analysis by enzyme-linked immunosorbent assay (ELISA). The spleen was harvested from each mouse and split into two. One half of each spleen was collected for immunohistochemical (IHC) analysis of germinal center activity using peanut agglutinin (PNA) staining. Single-cell suspensions were collected from the other spleen halves and stored in DMSO cell-freezing medium. These samples were to be used for optional FACS analysis. Remaining tissues were discarded without further evaluation.
(§5) Statistical analysis: Descriptive and inferential analyses were performed using the corresponding functions of Excel 2010 (Microsoft, Redmond, Wash.). Inferential analysis consisted of t-test comparisons (two-tailed, non-paired, heteroscedasticity assumed) between groups as indicated. Values of p<0.05 were considered statistically significant.
Results:KLH-specific IgG Levels. ELISA (performed as experimental replicates) was used to determine the levels of immunoglobulin G (IgG) specific for KLH in the terminal serum samples.

[1] = tested on: germinal centers of the spleen; assay: IHC with PNA staining of spleen as a measure of germinal center activity in KLH-immunized mice; type: in vivo, C57BL/6 mice; settings: spleen Day 14; for Staining Intensity, Group Mean: PNA IHC, KLH + Vehicle group 2.4; for % PNA-Positive Staining of Germinal Center, Group Mean: KLH + Vehicle group 42%
Procedure: as §1, §2, §3, §4, §5
Immunohistochemical (IHC) Staining with Peanut Agglutinin (PNA) as a Measure of Germinal Center Activity. IHC with PNA staining was used to determine the levels of positive staining in the germinal centers of the spleen.

SMILES: O=P1(N(CCCl)CCCl)NCCCO1 (stereo not drawn) [CP, cyclophosphamide, reference compound]
- attenuation of immune response to KLH (serum IgG and PNA staining of splenic germinal centers) (KLH-specific IgG; 50 mg/kg, IP, once weekly over 14 days): nominal but non-significant attenuation
- Serum IgG Level, Day 14, Group Mean (KLH-specific IgG; 50 mpk IP once weekly over 14 days): 161482 U/mL
- Staining Intensity, Group Mean ([1]; 50 mpk IP once weekly): 1.3
- % PNA-Positive Staining of Germinal Center, Group Mean ([1]; 50 mpk IP once weekly): 29%

SMILES: CNC(=O)COc1cc2cc(Nc3nc(N4CCC(C(=O)N(C)C)CC4)ncc3Cl)cc(OC)c2n(C)c1=O [Compound 2, 1-(5-chloro-4-((8-methoxy-1-methyl-3-(2-(methylamino)-2-oxoethoxy)-2-oxo-1,2-dihydroquinolin-6-yl)amino)pyrimidin-2-yl)-N,N-dimethylpiperidine-4-carboxamide]
- attenuation of immune response to KLH (reduced IgG levels and germinal center activity) (KLH-specific IgG; 100 mg/kg, IP, once daily over 14 days): highly significant attenuation
- attenuation of immune response to KLH (KLH-specific IgG; 10 or 30 mg/kg, IP, once daily over 14 days, no observable dose response): less significant attenuation
- Serum IgG Level, Day 14, Group Mean (KLH-specific IgG; 100 mpk IP once daily Days 0-13): 41503 U/mL
- Staining Intensity, Group Mean ([1]; 100 mpk IP once daily): 1.1
- % PNA-Positive Staining of Germinal Center, Group Mean ([1]; 100 mpk IP once daily): 7%

SMILES: CNC(=O)COc1cc2cc(Nc3nc(N4C[C@H](C)C[C@H](C)C4)ncc3Cl)ccc2n(C)c1=O [Compound 1, 2-((6-((5-chloro-2-((3R,5S)-3,5-dimethylpiperidin-1-yl)pyrimidin-4-yl)amino)-1-methyl-2-oxo-1,2-dihydroquinolin-3-yl)oxy)-N-methylacetamide]
- Serum IgG Level, Day 14, Group Mean (KLH-specific IgG; 10 mpk IP once daily Days 0-13): 100997 U/mL
- Serum IgG Level, Day 14, Group Mean (KLH-specific IgG; 30 mpk IP once daily Days 0-13): 103098 U/mL
- Staining Intensity, Group Mean ([1]; 10 mpk IP once daily): 1.2
- Staining Intensity, Group Mean ([1]; 30 mpk IP once daily): 1.5
- % PNA-Positive Staining of Germinal Center, Group Mean ([1]; 10 mpk IP once daily): 12%
- % PNA-Positive Staining of Germinal Center, Group Mean ([1]; 30 mpk IP once daily): 12%
